Measurements from ChEMBL document CHEMBL1201862, “PubChem BioAssay data set” (2004).
Calls of active or inactive are those of the source.

Columns and labels:
Hexokinase = Hexokinase (Trypanosoma brucei, UniProt Q38C41); assay: Confirmation assay for inhibitors of Trypanosoma brucei hexokinase 1-Analogue-first series. [Related pubchem assays (depositor defined):AID1430, AID1632, AID2516, AID2560, AID2579, AID2600, AID449725, AID492951]; format: functional
[1] = target: Glyceraldehyde-3-phosphate dehydrogenase (Homo sapiens, UniProt P04406)
Chain of Glyceraldehyde-3-phosphate dehydrogenase (P04406 whole entry): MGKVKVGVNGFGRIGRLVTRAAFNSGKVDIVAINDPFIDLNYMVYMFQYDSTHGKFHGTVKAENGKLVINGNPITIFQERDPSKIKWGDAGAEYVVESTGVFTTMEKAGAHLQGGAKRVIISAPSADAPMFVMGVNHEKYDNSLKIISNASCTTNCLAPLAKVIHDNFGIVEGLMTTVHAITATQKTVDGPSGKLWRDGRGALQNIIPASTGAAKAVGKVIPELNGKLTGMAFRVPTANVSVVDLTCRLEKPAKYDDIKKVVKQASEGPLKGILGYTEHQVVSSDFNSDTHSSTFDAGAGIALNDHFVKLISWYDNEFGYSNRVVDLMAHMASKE

[2] = target: Alkaline phosphatase, placental type (Homo sapiens, UniProt P05187); assay: PLAP enzyme inhibitors, confirmation, biochemical, luminescence (AID 1512); format: functional
Chain of Alkaline phosphatase, placental type (P05187 whole entry): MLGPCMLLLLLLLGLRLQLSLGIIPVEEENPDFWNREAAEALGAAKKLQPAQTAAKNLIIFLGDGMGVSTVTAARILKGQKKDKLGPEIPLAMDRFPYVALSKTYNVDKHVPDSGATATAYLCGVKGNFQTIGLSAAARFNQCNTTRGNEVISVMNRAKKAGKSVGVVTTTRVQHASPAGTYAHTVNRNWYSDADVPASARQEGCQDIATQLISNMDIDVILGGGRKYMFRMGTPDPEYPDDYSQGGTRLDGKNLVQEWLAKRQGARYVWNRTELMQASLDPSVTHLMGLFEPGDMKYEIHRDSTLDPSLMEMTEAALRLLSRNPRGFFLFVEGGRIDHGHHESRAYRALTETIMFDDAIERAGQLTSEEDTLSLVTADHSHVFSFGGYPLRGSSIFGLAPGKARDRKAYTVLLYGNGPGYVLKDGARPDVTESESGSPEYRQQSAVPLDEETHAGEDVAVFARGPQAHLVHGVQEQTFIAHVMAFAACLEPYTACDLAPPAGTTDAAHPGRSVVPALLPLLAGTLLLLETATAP

[3] = target: T1, Alkaline phosphatase, tissue-nonspecific isozyme (Homo sapiens, UniProt P05186); assay: human TNAP enzyme inhibitors, SAR follow-up, biochemical, luminescent, dose response (AID 1056)
T1 sequence (P05186 whole entry): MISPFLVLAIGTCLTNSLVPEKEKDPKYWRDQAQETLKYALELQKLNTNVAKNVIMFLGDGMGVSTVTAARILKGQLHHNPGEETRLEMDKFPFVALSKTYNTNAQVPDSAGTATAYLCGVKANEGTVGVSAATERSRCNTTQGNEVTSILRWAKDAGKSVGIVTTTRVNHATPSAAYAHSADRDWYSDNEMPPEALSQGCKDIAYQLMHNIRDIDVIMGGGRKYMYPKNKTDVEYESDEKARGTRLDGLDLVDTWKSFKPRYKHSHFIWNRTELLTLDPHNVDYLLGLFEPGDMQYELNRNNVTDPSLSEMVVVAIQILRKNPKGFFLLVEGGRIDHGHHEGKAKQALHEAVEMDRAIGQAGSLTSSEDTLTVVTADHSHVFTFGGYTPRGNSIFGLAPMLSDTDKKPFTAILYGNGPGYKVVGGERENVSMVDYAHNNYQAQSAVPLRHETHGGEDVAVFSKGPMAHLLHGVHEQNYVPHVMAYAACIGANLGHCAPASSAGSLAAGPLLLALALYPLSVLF

[4] = target: T2, Tyrosine-protein phosphatase non-receptor type 7 (Homo sapiens, UniProt P35236); assay: redox-dependent HePTP inhibition, mechanism study, biochemical, fluorescence (AID 2068); format: functional
T2 sequence (P35236 whole entry): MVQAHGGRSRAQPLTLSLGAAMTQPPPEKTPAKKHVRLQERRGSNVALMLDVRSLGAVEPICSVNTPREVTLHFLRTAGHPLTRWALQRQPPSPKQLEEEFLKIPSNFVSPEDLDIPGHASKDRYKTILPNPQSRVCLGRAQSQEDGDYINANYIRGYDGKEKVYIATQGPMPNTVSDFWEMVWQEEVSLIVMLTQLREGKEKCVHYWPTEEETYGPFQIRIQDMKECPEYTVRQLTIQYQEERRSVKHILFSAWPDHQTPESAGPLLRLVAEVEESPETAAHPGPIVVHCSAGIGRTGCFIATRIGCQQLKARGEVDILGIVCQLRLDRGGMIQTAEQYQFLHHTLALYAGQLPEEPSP

[5] = target: T3, Dual specificity protein phosphatase 6 (Rattus norvegicus, UniProt Q64346); format: functional;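 further: confirmatory in vitro dose-response testing of MKP-3 inhibition; recombinant His-tagged MKP-3 made in E. coli BL21 with OMFP substrate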
T3 sequence (Q64346 whole entry): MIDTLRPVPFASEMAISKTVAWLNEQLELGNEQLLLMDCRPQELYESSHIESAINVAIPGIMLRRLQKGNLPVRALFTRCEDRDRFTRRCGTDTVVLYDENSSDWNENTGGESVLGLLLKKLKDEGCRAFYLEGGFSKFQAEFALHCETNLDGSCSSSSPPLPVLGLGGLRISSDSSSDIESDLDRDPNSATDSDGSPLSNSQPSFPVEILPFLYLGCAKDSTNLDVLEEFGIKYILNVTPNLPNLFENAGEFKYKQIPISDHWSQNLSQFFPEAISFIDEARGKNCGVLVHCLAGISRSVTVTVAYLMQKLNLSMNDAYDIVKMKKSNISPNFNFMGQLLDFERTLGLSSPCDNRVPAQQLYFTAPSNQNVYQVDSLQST

[6] = target: T4, Neuropeptides B/W receptor type 1 (Homo sapiens, UniProt P48145); assay: Fluorescence-based dose response cell-based high throughput screening assay to identify antagonists of the G-protein coupled receptor 7 (GPR7). [Related pubchem assays: 1952 (Screening assay (GPR7 antagonists).), 1880 (Summary AID.)]; format: functional
T4 sequence (P48145 whole entry): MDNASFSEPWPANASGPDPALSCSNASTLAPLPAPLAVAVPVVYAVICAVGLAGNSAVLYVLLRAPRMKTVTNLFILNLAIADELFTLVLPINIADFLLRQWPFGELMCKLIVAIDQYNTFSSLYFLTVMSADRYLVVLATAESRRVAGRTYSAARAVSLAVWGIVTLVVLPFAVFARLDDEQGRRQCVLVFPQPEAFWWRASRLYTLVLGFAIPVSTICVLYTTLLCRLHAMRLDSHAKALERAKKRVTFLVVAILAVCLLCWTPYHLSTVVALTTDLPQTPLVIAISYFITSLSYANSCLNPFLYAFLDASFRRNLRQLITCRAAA

[7] = target: Melanin-concentrating hormone receptor 1 (Homo sapiens, UniProt Q99705); assay: Fluorescence-based counterscreen for antagonists of the G-protein coupled receptor 7 (GPR7): cell-based high throughput dose response assay to identify antagonists of the melanin-concentrating hormone receptor 1 (MCHR1).; format: functional
Chain of Melanin-concentrating hormone receptor 1 (Q99705 whole entry): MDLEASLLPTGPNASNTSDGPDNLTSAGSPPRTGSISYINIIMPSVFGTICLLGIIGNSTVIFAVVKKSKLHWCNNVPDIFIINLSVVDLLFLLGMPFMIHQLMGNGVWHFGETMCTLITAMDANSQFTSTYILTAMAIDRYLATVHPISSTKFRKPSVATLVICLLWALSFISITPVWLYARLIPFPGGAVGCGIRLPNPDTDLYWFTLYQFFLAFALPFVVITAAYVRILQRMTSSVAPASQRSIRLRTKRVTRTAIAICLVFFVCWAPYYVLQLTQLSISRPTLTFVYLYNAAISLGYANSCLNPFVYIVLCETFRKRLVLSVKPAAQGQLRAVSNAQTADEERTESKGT

[8] = target: G-protein coupled receptor 55 (Homo sapiens, UniProt Q9Y2T6); assay: GPR55 agonists via beta-arrestin recruitment, primary screen, imaging, U2OS cells, beta-arrestin-GFP redistribution (AID 1961); format: functional
Chain of G-protein coupled receptor 55 (Q9Y2T6 whole entry): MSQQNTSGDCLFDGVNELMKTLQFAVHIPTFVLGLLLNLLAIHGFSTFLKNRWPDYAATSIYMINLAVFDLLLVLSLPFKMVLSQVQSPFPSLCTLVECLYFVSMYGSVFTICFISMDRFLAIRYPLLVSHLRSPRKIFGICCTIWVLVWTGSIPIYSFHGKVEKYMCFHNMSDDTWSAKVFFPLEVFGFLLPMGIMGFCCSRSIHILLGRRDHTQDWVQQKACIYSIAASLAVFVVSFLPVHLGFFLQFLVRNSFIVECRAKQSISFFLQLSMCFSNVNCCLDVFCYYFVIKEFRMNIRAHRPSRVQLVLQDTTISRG

Chain of Hexokinase (Q38C41 whole entry): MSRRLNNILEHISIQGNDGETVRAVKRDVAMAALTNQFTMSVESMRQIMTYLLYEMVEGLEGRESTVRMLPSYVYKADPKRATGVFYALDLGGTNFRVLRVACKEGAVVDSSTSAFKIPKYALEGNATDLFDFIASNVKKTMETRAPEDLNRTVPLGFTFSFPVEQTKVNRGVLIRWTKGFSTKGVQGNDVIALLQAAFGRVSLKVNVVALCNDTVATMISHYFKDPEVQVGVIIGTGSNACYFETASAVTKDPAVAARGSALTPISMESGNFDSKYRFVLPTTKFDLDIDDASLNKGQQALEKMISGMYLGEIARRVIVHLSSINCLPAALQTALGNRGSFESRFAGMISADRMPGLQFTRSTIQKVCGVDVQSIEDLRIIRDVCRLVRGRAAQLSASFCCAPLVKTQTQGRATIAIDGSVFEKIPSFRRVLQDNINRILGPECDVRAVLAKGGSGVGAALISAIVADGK

COc1cccc(CC(=O)Nc2cc(Cl)ccc2C(=O)O)c1
IC50 (Hexokinase): > 25 µM (inactive)

O=[N+]([O-])c1ccc(-c2n[nH]c(-c3ccccc3)n2)cc1
IC50 [1]: > 100 µM (not active) | IC50 [2]: > 100 µM (inactive) | IC50 [3]: > 100 µM (inactive)

O=C(Cn1sc2ccccc2c1=O)Nc1ccccc1C(F)(F)F
IC50 (Hexokinase): > 25 µM (inactive)

CCC(CC)NC(=S)c1ccc(O)c(OC)c1
IC50 [4]: 0.766 µM (active) | IC50 [5]: > 100 µM (inactive)

Cc1ccc(Cl)cc1N1CCN(C(=O)c2ccc3c(c2)CCN3S(C)(=O)=O)CC1
IC50 [6]: 23.5 µM (not active) | IC50 [7]: 16.9 µM (not active) | EC50 [8]: 21 µM (inactive)
